Here are results for 1 molecule from paper PMC11546339, “Conformational Plasticity Enhances the Brain Penetration of a Metabolically Stable, Dual-Functional Opioid-Peptide CycloAnt” (International Journal of Molecular Sciences, 2024).

Where a SMILES comes first, the peptide text is derived from it. Bridges are numbered along the chain shown (N, C = ends). [ ]: non-standard residue; d: D form. 2Abz = Nc1ccccc1C(=O)O; Dap = NC[C@H](N)C(=O)O

A short description of this data set: Metabolism by CYP450 in mouse liver microsomes (NADPH). The following applies: 3.07 μM, 0.5 mg/mL microsomes, 1 mM NADPH, 37 °C, 120 min. In kind it is in vitro ADME. On the procedure: The metabolic stability of CycloAnt was then evaluated in mouse liver microsomes. CycloAnt at a final concentration of 3.07 μM was mixed with 0.5 mg/mL liver microsomes in the presence of 1 mM of NADPH and incubated at 37 °C for 2 h. At 0, 5, 15, 30, 60, and 120 min, incubation mixtures were withdrawn and processed. The supernatant was analyzed by LC-MS/MS. The percentage of CycloAnt remaining at each time point was calculated (Figure 3a).
Metabolism by CYP450 in liver microsomes. CycloAnt dissolved in pH 7.2 PBS was diluted to 8 μM. Six hundred microliters of CycloAnt were incubated with 800 μL of 0.975 mg/mL mouse liver microsomes and 160 μL of 10 mM NADPH at 37 °C for 0, 5, 15, 30, 60, and 120 min. The final concentrations of CycloAnt, mouse liver microsomes, and NADPH in the incubation mixture were 3.07 μM, 0.5 mg/mL, and 1 mM, respectively. At the designated time points, 100 μL of the incubation mixture were withdrawn and mixed with 200 μL ice-cold acetonitrile containing internal standard (IS, Tyr-[D-Lys-Phe-Tyr-Gly]), followed by centrifugation at 10,000× g at 4 °C for 10 min. An aliquot of 250 μL of supernatant was collected and dried in vacuum. The dried sample was reconstituted in 100 μL of 20% acetonitrile and stored at −20 °C before analyzed by LC-MS/MS on the next day. The experiment was performed in duplicate.
(In general: Liver microsomes are a subcellular fraction often used to study metabolism.)

In the case of `C[C@@H](O)[C@@H]1NC(=O)[C@H](CNC(=O)c2ccccc2N)NC(=O)[C@H](NC(=O)[C@@H](N)Cc2ccc(O)cc2)CCCCNC(=O)CNC1=O` [CycloAnt] (H-Y[dK][Dap](2Abz)TG; lactam 2-C), the “stability in mouse liver microsomes with NADPH (CYP450)” value is “no significant concentration change”.
